According to the supplement of paper PMC9663587:

What was measured:
[1] = compound: Cc1cc(Nc2ncc(Cl)c(Nc3ccccc3S(=O)(=O)C(C)C)n2)c(OC(C)C)cc1C1CCNCC1 [Ceritinib/LDK378]
[2] = compound: COc1cc2c(Oc3ccc4[nH]c(C)cc4c3F)ncnc2cc1OCCCN1CCCC1 [Cediranib/AZD2171]
[3] = compound: O=C1NC(=O)[C@@H](c2cn3c4c(cccc24)CCC3)[C@@H]1c1c[nH]c2ccccc12 [Tivantinib/ARQ197]
[4] = compound: CC(=O)O[C@H]1C(=O)[C@@]2(C)[C@H]([C@H](OC(=O)c3ccccc3)[C@]3(O)C[C@H](OC(=O)[C@H](O)[C@@H](NC(=O)c4ccccc4)c4ccccc4)C(C)=C1C3(C)C)[C@]1(OC(C)=O)CO[C@@H]1C[C@@H]2O [Paclitaxel]
[5] = compound: CS(=O)(=O)N1CCN(Cc2cc3nc(-c4cccc5[nH]ncc45)nc(N4CCOCC4)c3s2)CC1 [Pictilisib/GDC0941]
[6] = compound: CCN1CCN(Cc2ccc(Nc3ncc(F)c(-c4cc(F)c5nc(C)n(C(C)C)c5c4)n3)nc2)CC1; test: GR value, 72 h; higher = faster growth (1 = untreated, <0 = killing);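 further: breast cancer and non-malignant breast epithelial lines, nine half-log doses, viable cells counted by Hoechst and LIVE/DEAD dye imaging versus time-zero plates and DMSO controls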
[7] = compound: CCc1cnn2c(NCc3ccc[n+]([O-])c3)cc(N3CCCC[C@H]3CCO)nc12; test: as above
[8] = compound: CC(=O)c1c(C)c2cnc(Nc3ccc(N4CCNCC4)cn3)nc2n(C2CCCC2)c1=O; test: as above
[9] = compound: C[C@@H]1COCCN1c1cc(C2([S@](C)(=N)=O)CC2)nc(-c2cc[nH]c3nccc2-3)n1 [AZD6738]
[10] = compound: CN(C)C/C=C/C(=O)Nc1ccc(O[C@@H]2CCC[C@@H](Nc3ncc(Cl)c(-c4c[nH]c5ccccc45)n3)C2)cc1 [BSJ-01-175]
[11] = compound: CNCc1ccc(-c2[nH]c3cc(F)cc4c3c2CCNC4=O)cc1 [Rucaparib]
[12] = compound: T1, CN(C)C/C=C/C(=O)Nc1ccc(C(=O)N2CCC[C@@H](Nc3ncc(Cl)c(-c4c[nH]c5ccccc45)n3)C2)cc1 [THZ531]
[13] = compound: CN(C)C/C=C/C(=O)Nc1ccc(C(=O)Nc2cccc(Nc3ncc(Cl)c(-c4c[nH]c5ccccc45)n3)c2)cc1 [THZ1]; test: GR value, 72 h; higher = faster growth (1 = untreated, <0 = killing);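 further: breast cancer and non-malignant breast epithelial lines, nine half-log doses, viable cells counted by Hoechst and LIVE/DEAD dye imaging versus time-zero plates and DMSO controls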
[14] = compound: C=CC(=O)Nc1ccc(C(=O)Nc2[nH]nc3c2CN(C(=O)N[C@H](CN(C)C)c2ccccc2)C3(C)C)cc1 [YKL-5-124]; test: as above
[15] = compound: T1, THZ531; test: as above
[16] = compound: CC(=O)c1c(C)c2cnc(Nc3ccc(N4CCN(CCOCCOCCOCCNC(=O)COc5cccc6c5C(=O)N(C5CCC(=O)NC5=O)C6=O)CC4)cn3)nc2n(C2CCCC2)c1=O [BSJ-03-123]; test: as above
[17] = compound: CN(C)C(=O)c1cc2cnc(Nc3ccc(N4CCNCC4)cn3)nc2n1C1CCCC1 [LEE011/Ribociclib]; test: as above
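Wherever GR50, 72 h is given: breast cancer and non-malignant breast epithelial cell lines, Deep Dye Drop or Dye Drop imaging, nine half-log doses, GR normalized to time-zero plates and DMSO-only controls.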

HCC1428
GR50, 72 h [1]: 1.24 µM
GR50, 72 h [2]: 3.17 µM
GR50, 72 h [3]: 0.252 µM
GR50, 72 h [4]: 0.00862 µM
GR50, 72 h [5]: 5.87 µM
GR value ([6]; 0.001 µM): 0.945 GR
GR value ([6]; 0.003162 µM): 0.654 GR
GR value ([6]; 0.01 µM): 0.515 GR
GR value ([6]; 0.03162 µM): 0.31 GR
GR value ([6]; 0.1 µM): 0.228 GR
GR value ([6]; 0.3162 µM): 0.25 GR
GR value ([6]; 1 µM): 0.234 GR
GR value ([6]; 3.162 µM): 0.181 GR
GR value ([6]; 10 µM): 0.0475 GR
GR value ([7]; 0.0001 µM): 1.11 GR
GR value ([7]; 0.0003162 µM): 1.09 GR
GR value ([7]; 0.001 µM): 0.975 GR
GR value ([7]; 0.003162 µM): 0.984 GR
GR value ([7]; 0.01 µM): 0.871 GR
GR value ([7]; 0.03162 µM): -0.205 GR
GR value ([7]; 0.1 µM): -0.538 GR
GR value ([7]; 0.3162 µM): -0.619 GR
GR value ([7]; 1 µM): -0.67 GR
GR value ([8]; 0.0003162 µM): 1.05 GR
GR value ([8]; 0.001 µM): 1.07 GR
GR value ([8]; 0.003162 µM): 1.14 GR
GR value ([8]; 0.01 µM): 0.874 GR
GR value ([8]; 0.03162 µM): 0.729 GR
GR value ([8]; 0.1 µM): 0.434 GR
GR value ([8]; 0.3162 µM): 0.313 GR
GR value ([8]; 1 µM): 0.247 GR
GR value ([8]; 3.162 µM): 0.268 GR

HCC1500
GR50, 72 h [1]: 1.41 µM
GR50, 72 h [2]: 3.86 µM
GR50, 72 h [3]: 0.115 µM
GR50, 72 h [4]: 0.00382 µM
GR50, 72 h [5]: 2.26 µM
GR value ([6]; 0.001 µM): 1.1 GR
GR value ([6]; 0.003162 µM): 0.961 GR
GR value ([6]; 0.01 µM): 0.802 GR
GR value ([6]; 0.03162 µM): 0.592 GR
GR value ([6]; 0.1 µM): 0.533 GR
GR value ([6]; 0.3162 µM): 0.701 GR
GR value ([6]; 1 µM): 0.494 GR
GR value ([6]; 3.162 µM): 0.395 GR
GR value ([6]; 10 µM): 0.195 GR
GR value ([7]; 0.0001 µM): 1.07 GR
GR value ([7]; 0.0003162 µM): 0.975 GR
GR value ([7]; 0.001 µM): 1.06 GR
GR value ([7]; 0.003162 µM): 1.06 GR
GR value ([7]; 0.01 µM): 0.674 GR
GR value ([7]; 0.03162 µM): -0.172 GR
GR value ([7]; 0.1 µM): -0.576 GR
GR value ([7]; 0.3162 µM): -0.534 GR
GR value ([7]; 1 µM): -0.601 GR
GR value ([8]; 0.0003162 µM): 1.03 GR
GR value ([8]; 0.001 µM): 1.16 GR
GR value ([8]; 0.003162 µM): 1.19 GR
GR value ([8]; 0.01 µM): 1.11 GR
GR value ([8]; 0.03162 µM): 0.838 GR
GR value ([8]; 0.1 µM): 0.676 GR
GR value ([8]; 0.3162 µM): 0.581 GR
GR value ([8]; 1 µM): 0.709 GR
GR value ([8]; 3.162 µM): 0.592 GR

HCC1954
GR50, 72 h [9]: 5.43 µM
GR50, 72 h [10]: 0.102 µM
GR50, 72 h [1]: 2.33 µM
GR50, 72 h [2]: 4.08 µM
GR50, 72 h [3]: 0.167 µM
GR50, 72 h [11]: > 10 µM
GR50, 72 h [4]: 0.0025 µM
GR50, 72 h [12]: 0.362 µM
GR50, 72 h [5]: 0.944 µM
GR value ([13]; 0.0001 µM): 1.03 GR
GR value ([13]; 0.0003162 µM): 0.958 GR
GR value ([13]; 0.001 µM): 1.01 GR
GR value ([13]; 0.003162 µM): 1 GR
GR value ([13]; 0.01 µM): 0.939 GR
GR value ([13]; 0.03162 µM): 0.85 GR
GR value ([13]; 0.1 µM): 0.491 GR
GR value ([13]; 0.3162 µM): -0.0278 GR
GR value ([13]; 1 µM): -0.507 GR
GR value ([14]; 0.001 µM): 0.224 GR
GR value ([14]; 0.003162 µM): 0.154 GR
GR value ([14]; 0.01 µM): 0.0574 GR
GR value ([14]; 0.03162 µM): 0.0823 GR
GR value ([14]; 0.1 µM): -0.0214 GR
GR value ([14]; 0.3162 µM): 0.0013 GR
GR value ([14]; 1 µM): -0.0774 GR
GR value ([14]; 3.162 µM): -0.0189 GR
GR value ([14]; 10 µM): -0.143 GR
GR value ([6]; 0.001 µM): 1.01 GR
GR value ([6]; 0.003162 µM): 0.941 GR
GR value ([6]; 0.01 µM): 0.844 GR
GR value ([6]; 0.03162 µM): 0.698 GR
GR value ([6]; 0.1 µM): 0.584 GR
GR value ([6]; 0.3162 µM): 0.503 GR
GR value ([6]; 1 µM): 0.36 GR
GR value ([6]; 3.162 µM): 0.193 GR
GR value ([6]; 10 µM): -0.5 GR
GR value ([15]; 0.0001 µM): 1.04 GR
GR value ([15]; 0.0003162 µM): 1.06 GR
GR value ([15]; 0.001 µM): 0.921 GR
GR value ([15]; 0.003162 µM): 1.04 GR
GR value ([15]; 0.01 µM): 1.07 GR
GR value ([15]; 0.03162 µM): 1.05 GR
GR value ([15]; 0.1 µM): 0.873 GR
GR value ([15]; 0.3162 µM): 0.66 GR
GR value ([15]; 1 µM): -0.297 GR
GR value ([7]; 0.0001 µM): 0.941 GR
GR value ([7]; 0.0003162 µM): 1.04 GR
GR value ([7]; 0.001 µM): 1.05 GR
GR value ([7]; 0.003162 µM): 1.12 GR
GR value ([7]; 0.01 µM): 0.69 GR
GR value ([7]; 0.03162 µM): -0.352 GR
GR value ([7]; 0.1 µM): -0.474 GR
GR value ([7]; 0.3162 µM): -0.472 GR
GR value ([7]; 1 µM): -0.441 GR
GR value ([8]; 0.0003162 µM): 1.14 GR
GR value ([8]; 0.001 µM): 1.02 GR
GR value ([8]; 0.003162 µM): 1.07 GR
GR value ([8]; 0.01 µM): 0.905 GR
GR value ([8]; 0.03162 µM): 0.863 GR
GR value ([8]; 0.1 µM): 0.733 GR
GR value ([8]; 0.3162 µM): 0.611 GR
GR value ([8]; 1 µM): 0.57 GR
GR value ([8]; 3.162 µM): 0.523 GR
GR value ([16]; 0.001 µM): 0.886 GR
GR value ([16]; 0.003162 µM): 0.859 GR
GR value ([16]; 0.01 µM): 0.812 GR
GR value ([16]; 0.03162 µM): 0.745 GR
GR value ([16]; 0.1 µM): 0.689 GR
GR value ([16]; 0.3162 µM): 0.746 GR
GR value ([16]; 1 µM): 0.558 GR
GR value ([16]; 3.162 µM): 0.473 GR
GR value ([16]; 10 µM): -0.0177 GR
GR value ([17]; 0.001 µM): 0.804 GR
GR value ([17]; 0.003162 µM): 0.771 GR
GR value ([17]; 0.01 µM): 0.811 GR
GR value ([17]; 0.03162 µM): 0.771 GR
GR value ([17]; 0.1 µM): 0.655 GR
GR value ([17]; 0.3162 µM): 0.609 GR
GR value ([17]; 1 µM): 0.654 GR
GR value ([17]; 3.162 µM): 0.687 GR
GR value ([17]; 10 µM): 0.539 GR
